This is an account of results in patent US7625713B2, “Process for identifying a ligand that binds to the NEP binding site for the SMR1 pentapeptide” (Institut Pasteur, priority 2000, dated 2009).

Assay [1] has as its target T1, NEP (Rattus norvegicus, UniProt P07861).
T1 construct: incubations of membrane and fresh tissue slice preparations from nervous tissues; from tissue; host or cells: dorsal spinal cord of male Wistar rats (fresh slices or 100 000 x g membrane fraction)
T1 sequence (P07861 1-750): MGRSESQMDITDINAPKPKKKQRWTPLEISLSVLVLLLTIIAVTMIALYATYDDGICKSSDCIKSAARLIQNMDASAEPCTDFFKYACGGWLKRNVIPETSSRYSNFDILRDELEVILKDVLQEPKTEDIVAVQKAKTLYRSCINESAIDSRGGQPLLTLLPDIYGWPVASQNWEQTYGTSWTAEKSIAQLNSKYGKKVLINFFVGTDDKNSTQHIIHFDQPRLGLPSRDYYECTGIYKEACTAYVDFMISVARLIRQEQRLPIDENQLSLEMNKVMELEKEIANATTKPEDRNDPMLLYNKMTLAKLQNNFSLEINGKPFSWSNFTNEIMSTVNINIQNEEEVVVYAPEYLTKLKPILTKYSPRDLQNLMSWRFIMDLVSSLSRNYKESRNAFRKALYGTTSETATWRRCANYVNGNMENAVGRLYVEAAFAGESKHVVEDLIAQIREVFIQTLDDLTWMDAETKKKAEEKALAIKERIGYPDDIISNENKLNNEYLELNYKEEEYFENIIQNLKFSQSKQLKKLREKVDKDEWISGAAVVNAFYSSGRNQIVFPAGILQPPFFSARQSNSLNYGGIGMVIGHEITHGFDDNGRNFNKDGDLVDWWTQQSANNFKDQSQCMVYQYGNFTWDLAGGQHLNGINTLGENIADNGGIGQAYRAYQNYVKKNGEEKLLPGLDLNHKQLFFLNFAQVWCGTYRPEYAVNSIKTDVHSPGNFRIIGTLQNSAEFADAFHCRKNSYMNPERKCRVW
Kind of assay: Met-enkephalin hydrolysis by rat spinal cord slices and membrane preparations, RP-HPLC analysis. The assay is classed as biochemical. The following applies: 10 μM alone, spinal cord slices, 20 min at 25° C., 10 μM Met-enkephalin. How it is done: FIG. 2-B: […] Retention time) recovered after 20 min. incubation at 25° C. with 1 mg fresh tissue slices in a 1 ml final volume of KRBG buffer. The organs are rapidly removed, dissected on ice, freed of nerve fibers and of adipose tissues and then washed in cold oxygenated glucose- and bicarbonate-containing Krebs Ringer (KRBG) solution, whose composition is the following: 120 mM NaCl-5 mM KCl-1.2 mM KH2PO4-27.5 mM NaHCO3-2.6 mM CaCl2-0.67 mM MgSO4-5.9 mM glucose. The slices of tissues are prepared either manually with the aid of a scalpel (1-2 mm thick), or mechanically with the aid of a “Tissue Chopper” (1 mm thick). Slices are then dispersed into reaction tubes where they are subjected to three successive washes in ice-cold oxygenated KRBG. […] The organs dissected out and washed in ice-cold KRBG are homogenized at 4° C. in 10 volumes (vol./wt.) of 50 mM Tris/HCl buffered at pH 7.2, using a Teflon-glass homogenizer (3×5 sec.). […] The metabolism rate of the NEP-sensitive peptides was measured using the both NEP substrates involved in the signaling of the nociceptive response: the neuropeptides Met-enkephalin and Substance P. […] Their identification and relative quantification (peak height) are checked by continuously monitoring the UV absorbance at 254 nm of column outflow. […]

Assay [2] deals with T1, NEP. Kind of assay: Met-enkephalinase activity of rat spinal cord slices, Met-enkephalin RIA. The assay is classed as biochemical. Conditions: 10 μM, fresh spinal cord tissue, 20 min at 25° C. How it is done:
FIG. 2-A: […] The organs are rapidly removed, dissected on ice, freed of nerve fibers and of adipose tissues and then washed in cold oxygenated glucose- and bicarbonate-containing Krebs Ringer (KRBG) solution, whose composition is the following: 120 mM NaCl-5 mM KCl-1.2 mM KH2PO4-27.5 mM NaHCO3-2.6 mM CaCl2-0.67 mM MgSO4-5.9 mM glucose. The slices of tissues are prepared either manually with the aid of a scalpel (1-2 mm thick), or mechanically with the aid of a “Tissue Chopper” (1 mm thick). Slices are then dispersed into reaction tubes where they are subjected to three successive washes in ice-cold oxygenated KRBG. […] For the experiments of analysis of the NEP peptidase activity, an ex vivo model using incubations of membrane and fresh tissue slice preparations from nervous tissues that are known to be appropriate for exploring NEP peptidase activity: i.e. the dorsal zone of rat spinal cord, was first developed. The metabolism rate of the NEP-sensitive peptides was measured using the both NEP substrates involved in the signaling of the nociceptive response: the neuropeptides Met-enkephalin and Substance P. […] (NEN, 12.5-25 nM) were used. The objective was to measure the NEP-specific endoproteolysis of these substrates. […] Furthermore, for studying the functional role of […] NO: 2), the reaction was carried out in the presence of the SMR1-peptide alone or combined with specific inhibitors of membrane peptidases which could inactivate the […] […] Herein, a competitive RIA system has been used: the quantity of radioactive antigen bound to the antibody decreases in a manner inversely proportional to the quantity of antigen contained in the standard solution or in the sample. […] The activity of enkephalinase NEP is monitored by quantification of the disappearance of the initial Met-enkephalin substrate. […] The radiolabeled antigen is iodinated Met-enkephalin (^125I-Met-Enk enkephalin) with a specific radioactivity estimated at 3000 Ci/mmol. […] After centrifugation, the bound radioactivity of the precipitate is quantified using a gamma-spectrometer.

Assay [3] relates to male rats. Put plainly: Pin pain test. It counts as in vivo, rat. The procedure: The 3-min test session was performed 5 min after intravenous. rat tail vein administration of sialorphin or its vehicle. Naloxone (0.3 mg per kg body weight) was injected subcutaneously 15 min before sialorphin administration. Time in centre field sector (FIG. 6-C) (central square of the open-field without pin) and activity (FIGS. 6-A and 6-B) in peripheral squares (overlayed with pins) during the 3-min test session. Each value represents the mean±sem of 8 animals per group. […] Control group corresponded to pain response in vehicle-treated rats. 50 μg/kg sialorphin, 100 μg/kg sialorphin, 100 μg/kg sialorphin plus naloxone 0.3 mg/kg.
To extend the insight into the in vivo possible antinociceptive property of sialorphin through enkephalin-degrading enzyme inhibition, its effects were assessed in rat model of pain, i.e. the pin pain test, (Hebert et al. (1999) Physiology & Behavior 67, 99-105) in which the various behavioural parameters of pain responses were recorded with a 3-min cutoff time.
The in vivo activity of sialorphin was tested on the pin pain assay using male rats (350-400 g, Charles Rivers). The experimental device consists in an open-field (45×45×40 cm) which is divided into nine equal squares (150×150 mm), eight of them are peripheral and one is central. The peripheral squares are overlayed with stainless steel pins (2/cm2, length 8 mm and diameter 0.6 mm). The test consisted in placing the rat in the central square of the open-field and recording its different behaviours (cut-off time, 3 min). Two days before the pain test, the rats were familiarised with the experimental device without pins for 20 min, so as to reduce the stress linked to the spatial neophobia. All statistical analyses were carried out using the Statview 5 statistical package.

[4] abbreviates: naloxone 0.3 mg per kg subcutaneous, prior to sialorphin.

Take `CC(C)C[C@H](NP(=O)(O)O[C@@H]1O[C@@H](C)[C@H](O)[C@@H](O)[C@H]1O)C(=O)N[C@@H](Cc1c[nH]c2ccccc12)C(=O)O` [Phosphoramidon, reference compound]: the “inhibition of Met-enkephalinase activity (Met-enkephalin degradation)” value in assay [1] is “complete inhibition”. Also, the “protection of Met-enkephalin from degradation” value in assay [2] is given as 96%.
For `C=CCN1CC[C@]23c4c5ccc(O)c4O[C@H]2C(=O)CC[C@@]3(O)[C@H]1C5` [naloxone, reference compound], in assay [3] (setting [4]), the “reversal of the sialorphin-effect on behavioural parameters of noxious response” value was 42-63%, the “reversal of the sialorphin-effect on time in central area” value is 56% and the “reversal of the sialorphin-effect on vocalisation parameter” value came out at 20%. In assay [3] (sialorphin plus naloxone 0.3 mg/kg s.c. 15 min before sialorphin), the “time in the central area of the open-field” value came to 112.38 ± 17.44 s.
As to `O=C(O)CNC(=O)C(CS)Cc1ccccc1` (stereo not shown) [Thiorphan], the “protection of Met-enkephalin from degradation” value in assay [2] turned out to be 100%.
